Data taken from ChEMBL document CHEMBL1150971, “Crystal structures of catalytic subunit of cAMP-dependent protein kinase in complex with isoquinolinesulfonyl protein kinase inhibitors H7, H8, and H89. Structural implications for selectivity” (J Biol Chem, 1996).

Assays:
[1] = biological target: Myosin light chain kinase, smooth muscle (Gallus gallus, UniProt P11799); test: Inhibitory constant against MLCK
[2] = Inhibitory constant against CK1; design: species or system Rattus norvegicus
[3] = biological target: Protein kinase C (PKC); test: Inhibitory constant against PKC; format: protein assay, Oryctolagus cuniculus
[4] = biological target: Casein kinase II (Homo sapiens, UniProt P19784+P67870+P68400); test: Inhibitory constant against CK2; format: protein-complex assay, Oryctolagus cuniculus
[5] = Inhibitory constant against cGPK (PKG); design: species or system Sus scrofa
[6] = biological target: cAMP-dependent protein kinase alpha-catalytic subunit (Oryctolagus cuniculus, UniProt Q95J97); test: Inhibitory constant against cAPK (PKA)

Chain of Myosin light chain kinase, smooth muscle (P11799 whole entry): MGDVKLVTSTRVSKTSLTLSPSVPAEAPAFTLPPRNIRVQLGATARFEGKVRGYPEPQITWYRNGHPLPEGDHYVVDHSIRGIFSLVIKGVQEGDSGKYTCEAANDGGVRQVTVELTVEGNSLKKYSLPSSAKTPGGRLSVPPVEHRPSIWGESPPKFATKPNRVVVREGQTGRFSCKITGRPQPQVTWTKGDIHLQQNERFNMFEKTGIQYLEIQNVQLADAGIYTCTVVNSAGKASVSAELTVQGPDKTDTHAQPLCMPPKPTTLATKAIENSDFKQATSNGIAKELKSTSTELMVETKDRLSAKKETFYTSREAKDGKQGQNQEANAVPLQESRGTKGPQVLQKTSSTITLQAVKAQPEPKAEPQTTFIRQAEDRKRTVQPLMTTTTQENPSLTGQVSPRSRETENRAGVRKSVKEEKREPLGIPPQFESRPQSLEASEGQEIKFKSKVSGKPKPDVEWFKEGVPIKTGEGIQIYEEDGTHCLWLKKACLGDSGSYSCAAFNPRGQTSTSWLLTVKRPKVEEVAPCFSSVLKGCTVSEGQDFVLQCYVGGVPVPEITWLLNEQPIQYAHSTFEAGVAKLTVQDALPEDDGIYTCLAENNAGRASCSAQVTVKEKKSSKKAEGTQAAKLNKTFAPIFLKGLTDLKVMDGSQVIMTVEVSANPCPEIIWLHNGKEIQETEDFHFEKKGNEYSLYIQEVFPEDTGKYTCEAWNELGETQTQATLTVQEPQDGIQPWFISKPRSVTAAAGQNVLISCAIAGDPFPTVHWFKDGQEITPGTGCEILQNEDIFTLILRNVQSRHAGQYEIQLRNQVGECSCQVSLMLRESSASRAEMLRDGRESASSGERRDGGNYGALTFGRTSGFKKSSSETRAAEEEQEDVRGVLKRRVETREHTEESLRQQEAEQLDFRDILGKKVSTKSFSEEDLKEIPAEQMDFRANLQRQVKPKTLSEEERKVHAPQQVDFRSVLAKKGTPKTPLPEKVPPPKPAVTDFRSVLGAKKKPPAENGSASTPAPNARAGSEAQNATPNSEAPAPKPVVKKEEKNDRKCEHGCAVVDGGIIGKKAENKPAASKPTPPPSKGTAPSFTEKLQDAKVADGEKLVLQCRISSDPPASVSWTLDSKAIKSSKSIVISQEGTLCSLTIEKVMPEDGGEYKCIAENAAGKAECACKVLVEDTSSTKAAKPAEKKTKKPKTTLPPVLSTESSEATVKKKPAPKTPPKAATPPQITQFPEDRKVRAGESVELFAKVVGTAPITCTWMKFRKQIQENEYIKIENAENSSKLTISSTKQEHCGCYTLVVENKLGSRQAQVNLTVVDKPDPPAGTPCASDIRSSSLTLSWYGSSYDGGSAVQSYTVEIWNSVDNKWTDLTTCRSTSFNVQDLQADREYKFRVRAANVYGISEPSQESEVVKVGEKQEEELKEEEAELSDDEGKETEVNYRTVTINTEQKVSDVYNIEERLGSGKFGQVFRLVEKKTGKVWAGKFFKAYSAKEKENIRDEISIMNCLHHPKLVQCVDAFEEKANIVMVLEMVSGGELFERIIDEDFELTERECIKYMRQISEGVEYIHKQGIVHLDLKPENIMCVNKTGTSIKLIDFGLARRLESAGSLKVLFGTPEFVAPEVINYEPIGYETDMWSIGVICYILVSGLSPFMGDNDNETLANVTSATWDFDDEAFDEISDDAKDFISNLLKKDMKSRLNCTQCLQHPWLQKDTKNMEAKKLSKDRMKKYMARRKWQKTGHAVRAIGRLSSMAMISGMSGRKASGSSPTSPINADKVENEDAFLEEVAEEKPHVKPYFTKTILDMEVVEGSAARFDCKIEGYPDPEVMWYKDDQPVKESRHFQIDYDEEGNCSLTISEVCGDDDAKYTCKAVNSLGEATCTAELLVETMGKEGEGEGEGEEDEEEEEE
Chain of Casein kinase II (P67870 whole entry): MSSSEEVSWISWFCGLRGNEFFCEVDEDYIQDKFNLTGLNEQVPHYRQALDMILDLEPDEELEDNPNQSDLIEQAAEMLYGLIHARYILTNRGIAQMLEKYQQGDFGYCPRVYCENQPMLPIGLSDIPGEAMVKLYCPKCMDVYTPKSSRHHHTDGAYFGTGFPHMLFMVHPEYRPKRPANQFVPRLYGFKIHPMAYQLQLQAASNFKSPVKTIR
Chain of Casein kinase II (P68400 whole entry): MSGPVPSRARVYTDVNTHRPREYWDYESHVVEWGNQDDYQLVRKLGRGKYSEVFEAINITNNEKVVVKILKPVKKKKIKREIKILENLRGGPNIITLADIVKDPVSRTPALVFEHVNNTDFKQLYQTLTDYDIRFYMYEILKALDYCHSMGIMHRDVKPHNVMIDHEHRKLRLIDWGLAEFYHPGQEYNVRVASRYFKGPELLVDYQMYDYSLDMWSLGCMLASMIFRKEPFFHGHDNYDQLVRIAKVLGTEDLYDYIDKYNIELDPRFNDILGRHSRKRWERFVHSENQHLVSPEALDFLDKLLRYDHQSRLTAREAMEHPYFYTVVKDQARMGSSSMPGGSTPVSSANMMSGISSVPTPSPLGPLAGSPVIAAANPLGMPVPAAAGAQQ
Chain of Casein kinase II (P19784 whole entry): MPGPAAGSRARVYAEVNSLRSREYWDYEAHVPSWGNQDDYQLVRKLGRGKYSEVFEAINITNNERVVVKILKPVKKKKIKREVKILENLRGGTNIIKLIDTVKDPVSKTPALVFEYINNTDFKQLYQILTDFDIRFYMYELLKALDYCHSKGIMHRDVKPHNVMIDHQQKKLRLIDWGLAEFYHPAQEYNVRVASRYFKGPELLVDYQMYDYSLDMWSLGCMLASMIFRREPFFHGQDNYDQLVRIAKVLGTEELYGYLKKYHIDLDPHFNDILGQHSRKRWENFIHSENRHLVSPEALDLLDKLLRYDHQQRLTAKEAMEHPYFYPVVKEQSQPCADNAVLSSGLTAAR

| Ki [1] | Compound | Ki [2] | Ki [3] | Ki [4] | Ki [5] | Ki [6] |
| --- | --- | --- | --- | --- | --- | --- |
| 97 µM | C[C@H]1CNCCN1S(=O)(=O)c1cccc2cnccc12 | 100 µM | 6 µM | 780 µM | 5.8 µM | – |
| 28.3 µM | O=S(=O)(NCCNC/C=C/c1ccc(Br)cc1)c1cccc2cnccc12 | – | – | – | – | – |

| Compound | Ki [1] | Ki [2] | Ki [3] | Ki [4] | Ki [5] | Ki [6] |
| --- | --- | --- | --- | --- | --- | --- |
| CNCCNS(=O)(=O)c1cccc2cnccc12 | 68 µM | 133 µM | 15 µM | 950 µM | 0.48 µM | 1.2 µM |
